Several values for one entry are separate records, joined by “and”; a condition that tells them apart may be missing. Identical values can stand only once.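 A five-concentration, 48-hour dose response in 96-well plates underlies each endpoint, interpolated linearly between surrounding concentrations. Here, GI50 denotes the concentration required for 50% inhibition of growth. TGI: concentration producing complete growth inhibition.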
How the values were obtained:
Test in all cases: NCI-60 cell line screen, 48 h
SN12C renal = system: SN12C renal
MOLT-4 leukemia = system: MOLT-4 leukemia
SF-539 CNS = system: SF-539 CNS
SK-MEL-2 melanoma = system: SK-MEL-2 melanoma
MDA-MB-231 breast = system: MDA-MB-231 breast
CAKI-1 renal = system: CAKI-1 renal
UO-31 renal = system: UO-31 renal
SW-620 colon = system: SW-620 colon
HOP-92 NSCLC = system: HOP-92 NSCLC
HCC-2998 colon = system: HCC-2998 colon

SMILES | GI50 (SN12C renal) | TGI (SN12C renal) | GI50 (MOLT-4 leukemia) | TGI (MOLT-4 leukemia) | TGI (SF-539 CNS) | GI50 (SK-MEL-2 melanoma) | TGI (SK-MEL-2 melanoma) | GI50 (MDA-MB-231 breast) | TGI (MDA-MB-231 breast) | GI50 (CAKI-1 renal) [µM] | TGI (CAKI-1 renal) | TGI (UO-31 renal) | GI50 (SW-620 colon) | TGI (SW-620 colon) | GI50 (SF-539 CNS) | GI50 (HOP-92 NSCLC) [µM] | TGI (HOP-92 NSCLC) [µM] | GI50 (HCC-2998 colon) | TGI (HCC-2998 colon) | GI50 (UO-31 renal)
COc1cc2c3c(c1)c1cc(OC)c(OC)cc1c[n+]3CC2 | 5.66 µM | 15.6 µM and > 100 µM | 5.16 µM | 50 µM and > 100 µM | 50 µM | 16.7 µM | 50 µM and 71.3 µM | > 100 µM | > 100 µM | > 100 | 50 µM and > 100 µM | > 100 µM | 26.6 µM | > 100 µM | – | – | – | – | – | –
CCNC(=O)C#CC(=O)NCC | > 10 µM | > 100 µM | > 10 µM | > 100 µM | > 100 µM | > 10 µM | > 100 µM | – | – | > 10 | > 100 µM | > 100 µM | > 10 µM | > 87.7 µM | > 10 µM | > 10 | > 100 | > 10 µM | > 100 µM | > 10 µM
COc1ccc2c(c1OC)C1=C(C2=O)c2cc3c(cc2CCN1)OCO3 | – | > 100 µM | – | 83.9 µM | 61.2 µM | – | 66.3 µM | – | – | – | 83 µM | > 100 µM | – | 47.5 µM | – | – | > 100 | – | 75.5 µM | –
CCOC(=O)C(Cc1c[nH]c2ccc(N(CCCl)CCCl)cc12)(NC(C)=O)C(=O)OCC | 8.82 µM and 8.93 µM | 564 µM | 2.88 µM and 0.957 µM | 13 µM and 26.2 µM | 12.6 µM and 30.3 µM | 5.04 µM and 27.6 µM | 19.3 µM and 65.9 µM | 24.6 µM and 33.3 µM | 81.2 µM and 575 µM | – | – | 53.8 µM and 46 µM | 8.78 µM and 13.2 µM | 93.6 µM and 46.8 µM | 3.18 µM and 6.88 µM | 14.1 | 250 | 12.1 µM and 13.4 µM | 30.2 µM and 36.4 µM | 20.7 µM and 10.5 µM
CN1CCCN(C)C1c1cc([N+](=O)[O-])ccc1O | – | 85.7 µM | – | 59.8 µM | 74.9 µM | – | > 100 µM | – | > 100 µM | – | > 100 µM | 64.8 µM | – | > 100 µM | – | – | 76.6 | – | – | –
CN(C)C(N)=NC#N | – | > 100 µM | – | > 100 µM | > 100 µM | – | > 100 µM | – | – | – | > 100 µM | > 100 µM | – | 38.2 µM | – | – | > 100 | – | > 100 µM | –
CC(=O)O[C@H]1CC[C@@]2(C)C(=CC[C@H]3[C@@H]4C/C(=C\c5cccc(OCCN6CCOCC6)c5)[C@H](OC(C)=O)[C@@]4(C)CC[C@@H]32)C1 | 25 µM | > 100 µM | – | – | 13.9 µM | 12.2 µM | 24.5 µM | 3.12 µM | 13.3 µM | 12.2 | 59 µM | 19.3 µM | 4.87 µM | 15.7 µM | 3.64 µM | 4.32 | 16.8 | 5.32 µM | 17.6 µM | 6.43 µM
CCCCNN | – | > 100 µM | – | > 100 µM | – | – | > 100 µM | – | > 100 µM | – | > 100 µM | > 100 µM | – | > 100 µM | – | – | – | – | – | –
C1CCN(c2nsc(N3CCCCC3)n2)CC1 | – | > 100 µM | – | > 100 µM | > 100 µM | – | > 100 µM | – | – | – | > 100 µM | > 100 µM | – | > 100 µM | – | – | > 100 | – | > 100 µM | –
COc1cccc(NC(=O)CC(=O)N2N=C(N(CCC#N)c3ccccc3C)CC2c2ccccc2)c1 (stereo not given) | – | > 100 µM | – | > 100 µM | > 100 µM | – | > 100 µM | – | – | – | > 100 µM | > 100 µM | – | > 100 µM | – | – | > 100 | – | > 100 µM | –
